In patent publication US7842324B2 (Senomyx, Inc., priority 2005, dated 2010):

biological target: T1, hT1R2/hT1R3 sweet receptor expressed in HEK293 cell line (Homo sapiens, UniProt Q7RTX0+Q8TE23); assay: In vitro hT1R2/hT1R3-HEK293 taste receptor activation assay (FLIPR); format: cell-based; details: read-out: EC50 for activation of a hT1R2/hT1R3 sweet receptor expressed in HEK293 cell line
T1 construct: expressed in transfected cells; host or cells: HEK293 derivative stably expressing Gα15 and hT1R2/hT1R3, clone S-9
T1 sequence (Q8TE23 20-839): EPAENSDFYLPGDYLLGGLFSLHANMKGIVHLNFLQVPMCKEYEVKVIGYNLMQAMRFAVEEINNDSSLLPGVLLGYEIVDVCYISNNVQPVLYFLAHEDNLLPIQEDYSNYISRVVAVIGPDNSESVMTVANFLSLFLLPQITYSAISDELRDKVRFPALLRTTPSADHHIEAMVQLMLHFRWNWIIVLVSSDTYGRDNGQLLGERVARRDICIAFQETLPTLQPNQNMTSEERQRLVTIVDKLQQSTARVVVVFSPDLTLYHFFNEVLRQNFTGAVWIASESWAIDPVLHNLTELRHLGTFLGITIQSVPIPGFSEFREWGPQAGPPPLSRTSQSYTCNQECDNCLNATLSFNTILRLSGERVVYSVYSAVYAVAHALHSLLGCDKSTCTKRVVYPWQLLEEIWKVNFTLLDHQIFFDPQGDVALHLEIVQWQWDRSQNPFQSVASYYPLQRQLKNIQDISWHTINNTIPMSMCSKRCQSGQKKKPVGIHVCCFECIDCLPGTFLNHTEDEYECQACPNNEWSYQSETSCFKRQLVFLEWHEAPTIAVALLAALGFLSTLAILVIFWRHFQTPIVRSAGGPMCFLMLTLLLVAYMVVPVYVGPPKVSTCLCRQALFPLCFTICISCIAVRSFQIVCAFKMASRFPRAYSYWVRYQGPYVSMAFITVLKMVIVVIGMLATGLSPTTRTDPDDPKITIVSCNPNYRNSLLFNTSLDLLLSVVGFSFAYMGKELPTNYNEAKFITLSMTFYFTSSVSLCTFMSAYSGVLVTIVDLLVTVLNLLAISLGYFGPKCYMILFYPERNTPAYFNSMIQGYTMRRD
T1 sequence (Q7RTX0 21-852): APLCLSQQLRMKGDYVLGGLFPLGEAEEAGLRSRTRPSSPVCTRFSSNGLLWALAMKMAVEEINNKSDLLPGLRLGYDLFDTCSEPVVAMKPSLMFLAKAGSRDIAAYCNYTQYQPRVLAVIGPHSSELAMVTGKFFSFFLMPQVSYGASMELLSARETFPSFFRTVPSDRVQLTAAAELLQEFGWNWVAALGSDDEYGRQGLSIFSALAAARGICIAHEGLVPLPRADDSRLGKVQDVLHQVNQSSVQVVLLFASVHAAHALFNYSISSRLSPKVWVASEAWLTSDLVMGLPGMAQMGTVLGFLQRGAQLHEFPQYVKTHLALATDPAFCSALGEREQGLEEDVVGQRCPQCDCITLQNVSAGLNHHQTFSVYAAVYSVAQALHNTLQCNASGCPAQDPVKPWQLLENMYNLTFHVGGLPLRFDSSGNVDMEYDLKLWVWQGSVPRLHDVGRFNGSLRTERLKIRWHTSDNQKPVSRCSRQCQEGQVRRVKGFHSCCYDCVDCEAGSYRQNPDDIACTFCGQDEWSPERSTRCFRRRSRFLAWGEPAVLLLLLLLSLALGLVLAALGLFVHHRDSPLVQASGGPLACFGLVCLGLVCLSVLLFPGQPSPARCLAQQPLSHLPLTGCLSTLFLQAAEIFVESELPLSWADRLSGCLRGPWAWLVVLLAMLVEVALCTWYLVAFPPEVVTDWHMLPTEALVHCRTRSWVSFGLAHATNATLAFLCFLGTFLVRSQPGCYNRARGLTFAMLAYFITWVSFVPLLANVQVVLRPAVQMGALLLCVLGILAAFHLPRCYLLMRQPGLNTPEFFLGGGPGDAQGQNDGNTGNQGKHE
Description: An HEK293 cell line derivative (Chandrashekar et al., Cell (2000) 100:703-711) that stably expresses Gα15 and hT1R2/hT1R3 (Li et al., Proc Natl Acad Sci USA (2002) 99:4692-4696), see also PCT Publication No. WO 03/001876 A2) was used to identify compounds with sweet taste enhancing properties.
Compounds covered in this document were initially selected based on their activity on the hT1R2/hT1R3-HEK293-Gα15 cell line (Li et al. vide supra). Activity was determined using an automated fluorometric imaging assay on a FLIPR instrument ([…], Molecular Devices, Sunnyvale, Calif.) (designated FLIPR assay). Cells from one clone (designated S-9 cells) were seeded into 384-well plates (at approximately 50,000 cells per well) in a medium containing DMEM Low Glucose (Invitrogen, Carlsbad, Calif.), 10% dialyzed fetal bovine serum (Invitrogen, Carlsbad, Calif.), 100 Units/ml Penicillin G, and 100 μg/ml Streptomycin (Invitrogen, Carlsbad, Calif.) (Li et al. vide supra) see also PCT Publication No. WO 03/001876 A2). S-9 cells were grown for 24 hours at 37° C. S-9 cells were then loaded with the calcium dye Fluo-3AM (Molecular Probes, Eugene, Oreg.), 4 μM in a phosphate buffered saline (D-PBS) (Invitrogen, Carlsbad, Calif.), for 1 hour at room temperature. After replacement with 25 μl D-PBS, stimulation was performed in the FLIPR instrument and at room temperature by the addition of 25 μl D-PBS supplemented with different stimuli at concentrations corresponding to twice the desired final level. Receptor activity was quantified by determining the maximal fluorescence increases (using a 480 nm excitation and 535 nm emission) after normalization to basal fluorescence intensity measured before stimulation.
For dose-responses analysis, stimuli were presented in duplicates at 10 different concentrations ranging from 60 nM to 30 μM. Activities were normalized to the response obtained with 400 mM D-fructose, a concentration that elicits maximum receptor response. EC50s were determined using a non-linear regression algorithm (using a Senomyx, Inc. software), where the Hill slope, bottom asymptotes and top asymptotes were allow to vary. Identical results were obtained when analyzing the dose-response data using commercially available software for non-linear regression analysis such as GraphPad PRISM (San Diego, Calif.).

Row | Structure (SMILES) | EC50
1 | CC(C)CNC(=O)C(C)(C)c1ccc(-c2ccoc2)cc1 [Compound 1, 2-(4-(Furan-3-yl)phenyl)-N-isobutyl-2-methylpropanamide] | 0.34 µM
2 | CC(C)CNC(=O)C(C)c1ccc(-c2ccccc2)c(F)c1 (stereo not drawn) [Compound 3, 2-(2-fluorobiphenyl-4-yl)-N-isobutylpropanamide] | 2.8 µM
3 | CC(C(=O)NCc1ccco1)c1ccc(-c2ccccc2)c(F)c1 (stereo not drawn) [Compound 4, 2-(2-fluorobiphenyl-4-yl)-N-(furan-2-ylmethyl)propanamide] | 4.55 µM
4 | COCCNC(=O)C(C)c1ccc(-c2ccccc2)c(F)c1 (stereo not drawn) [Compound 5, 2-(2-fluorobiphenyl-4-yl)-N-(2-methoxyethyl)propanamide] | 6.5 µM
5 | CCC(COC)NC(=O)C(C)(C)c1ccc(-c2ccccc2)c(F)c1 (stereo not drawn) [Compound 6, 2-(2-fluorobiphenyl-4-yl)-N-(1-methoxybutan-2-yl)-2-methylpropanamide] | 3.81 µM
6 | CC(C)CNC(=O)C(C)(C)c1ccc(-c2ccsc2)cc1 [Compound 7, N-isobutyl-2-methyl-2-(4-(thiophen-3-yl)phenyl)propanamide] | 1.24 µM
7 | CC(C)CNC(=O)C(C)(C)c1ccc(-c2cccc([N+](=O)[O-])c2)cc1 [Compound 8, N-isobutyl-2-methyl-2-(3′-nitrobiphenyl-4-yl)propanamide] | 0.4 µM
8 | CC(C)CNC(=O)C(C)(C)c1ccc(-c2cccc(C#N)c2)cc1 [Compound 9, 2-(3′-cyanobiphenyl-4-yl)-N-isobutyl-2-methylpropanamide] | 0.2 µM
9 | COC(=O)c1cccc(-c2ccc(C(C)(C)C(=O)NCC(C)C)cc2)c1 [Compound 10, Methyl 4′-(1-(isobutylamino)-2-methyl-1-oxopropan-2-yl)biphenyl-3-carboxylate] | 0.9 µM
10 | CC(C)CNC(=O)C(C)(C)c1ccc(-c2cccc(O)c2)cc1 [Compound 11, 2-(3′-hydroxybiphenyl-4-yl)-N-isobutyl-2-methylpropanamide] | 1.9 µM
11 | Cc1ccccc1-c1ccc(C(C)(C)C(=O)NCC(C)C)cc1 [Compound 12, N-isobutyl-2-methyl-2-(2′-methylbiphenyl-4-yl)propanamide] | 1.9 µM
12 | CC(C)CNC(=O)C(C)(C)c1ccc(-c2ccccc2N)cc1 [Compound 13, 2-(2′-aminobiphenyl-4-yl)-N-isobutyl-2-methylpropanamide] | 2.2 µM
13 | CC(C)CNC(=O)C(C)(C)c1ccc(-c2ccccc2C#N)cc1 [Compound 14, 2-(2′-cyanobiphenyl-4-yl)-N-isobutyl-2-methylpropanamide] | 1.9 µM
14 | Cc1cccc(-c2ccc(C(C)(C)C(=O)NCC(C)C)cc2)c1 [Compound 15, N-isobutyl-2-methyl-2-(3′-methylbiphenyl-4-yl)propanamide] | 3 µM
15 | CCOC(=O)c1cccc(-c2ccc(C(C)(C)C(=O)NCC(C)C)cc2)c1 [Compound 16, Ethyl 4′-(1-(isobutylamino)-2-methyl-1-oxopropan-2-yl)biphenyl-3-carboxylate] | 2.6 µM
16 | CC(C)CNC(=O)C(C)(C)c1ccc(-c2cccc(C(=O)N(C)C)c2)cc1 [Compound 17, 2-(3′-((dimethylamino)carbonyl)biphenyl-4-yl)-N-isobutyl-2-methylpropanamide] | 2.7 µM
17 | CC(C)CNC(=O)C(C)(C)c1ccc(-c2cccc(OC(C)C)c2)cc1 [Compound 18, N-isobutyl-2-(3′-isopropoxybiphenyl-4-yl)-2-methylpropanamide] | 4.2 µM
18 | COc1cccc(-c2ccc(C(C)(C)C(=O)NCC(C)C)cc2)c1 [Compound 19, N-isobutyl-2-(3′-methoxybiphenyl-4-yl)-2-methylpropanamide] | 4.3 µM
19 | CCC(CC)NC(=O)C(C)(C)c1ccc(-c2cncc(C#N)c2)cc1 [Compound 21, 2-(4-(5-cyanopyridin-3-yl)phenyl)-2-methyl-N-(pentan-3-yl)propanamide] | 0.07 µM
20 | CC(C)[C@@H](C)NC(=O)C(C)(C)c1ccc(-c2cncc(C#N)c2)cc1 [Compound 22] | 0.14 µM
21 | CC(C)CNC(=O)C(NC(=O)OC(C)(C)C)c1ccc(-c2ccccc2)cc1 (stereo not drawn) [Compound 24, tert-butyl 1-(biphenyl-4-yl)-2-(isobutylamino)-2-oxoethylcarbamate] | 7.54 µM
22 | CCOCc1cncc(-c2ccc(C(C)(C)C(=O)NCC(C)C)cc2)c1 [Compound 26, 2-(4-(5-(ethoxymethyl)pyridin-3-yl)phenyl)-N-isobutyl-2-methylpropanamide] | 0.26 µM
23 | CC(C)CNC(=O)C(C)(C)c1ccc(-n2cccc2)cc1 [Compound 28, 2-(4-(1H-pyrrol-1-yl)phenyl)-N-isobutyl-2-methylpropanamide] | 0.35 µM
24 | COCc1cncc(-c2ccc(C(C)(C)C(=O)NCC(C)C)cc2)n1 [Compound 29, N-isobutyl-2-(4-(6-(methoxymethyl)pyrazin-2-yl)phenyl)-2-methylpropanamide] | 0.26 µM
25 | CC(C)CNC(=O)C(C)(C)c1cnn(-c2ccccc2)c1 [Compound 31, N-isobutyl-2-methyl-2-(1-phenyl-1H-pyrazol-4-yl)propanamide] | 14.9 µM
26 | CC(C)CNC(=O)C(C)(C)c1cc(-c2ccccc2)no1 [Compound 33, N-isobutyl-2-methyl-2-(3-phenylisoxazol-5-yl)propanamide] | 6.75 µM
27 | Cc1cscc1-c1ccc(C(C)(C)C(=O)NCC(C)C)cc1O [Compound 35, 2-(3-hydroxy-4-(4-methylthiophen-3-yl)phenyl)-N-isobutyl-2-methylpropanamide] | 1.04 µM
28 | CC(C)CNC(=O)C(C)(C)c1ccc(-c2ccccc2CO)cc1 [Compound 36, 2-(2′-(hydroxymethyl)biphenyl-4-yl)-N-isobutyl-2-methylpropanamide] | 1.05 µM
29 | CC(C)CNC(=O)C(C)(C)c1ccc(-c2ccccc2C=O)cc1 [Compound 37, 2-(2′-formylbiphenyl-4-yl)-N-isobutyl-2-methylpropanamide] | 0.81 µM
30 | CC(C)CNC(=O)C(C)(C)c1ccc(-c2cncc(C#N)c2)nc1 [Compound 40, 2-(5′-cyano-2,3′-bipyridin-5-yl)-N-isobutyl-2-methylpropanamide] | 2.19 µM
